Measured values as given in patent US20110070232A1, “Combination Therapy with an Antitumor Alkaloid” (Pharma Mar, S.A., priority 2008, published 2011).
Like-named read-outs stand apart in the source and are kept apart here.

Assays:
Assay type in all cases: in vivo, mice
Hs746T tumors = tested on: Hs746T tumors
Description: (§1) Female athymic nude mice (Harlan Sprague Dawley, Madison, Wis.) were utilized for all experiments. Animals were housed in ventilated rack caging with food and water ad libitum. The mice were acclimated for at least 5 days prior to tumor implantation with a tumor cell suspension.
The tumor model used in these studies was Hs746T cell line, which was obtained from the ATCC (Manassas, Va.).
(§2) Treatments were initiated on DPI 14.
(§3) Tumor size measurements were recorded twice weekly from the treatment initiation until the termination of the study.
(§4) Mean, standard deviation and standard error of the mean were determined for tumor volume for all animal groups at all assessments. Student's t test was performed on tumor volumes at each measurement day, including at the end of the study, to determine whether there were any statistically significant differences between combination treatment groups and single monotherapy treatment groups.

PLC/PRF/5 tumors = tested on: PLC/PRF/5 tumors
Description: as §1
The tumor model used in these studies was PLC/PRF/5 cell line, which was obtained from the ATCC (Manassas, Va.).
PLC/PRF/5 were grown in Eagle's minimum essential medium supplemented with 10% FBS and 1% L-glutamine. Each animal was implanted SC on the right flank, using a 13G trochar and 1 mL syringe, with 5×10^6 PLC/PRF/5 cells in a 0.2 mL suspension of 50% Matrigel and 50% serum free MEM medium, without antibiotics. Bacterial cultures were performed on aliquots of the cells prepared for implantation.
as §2, §3, §4

SK-OV-3 tumors = details: for % Inhibition: PM00104 0.9 mg/kg/day, single agents and combination, r5-r14 = day 14,17,21,24,29,32,36,43,50,57
Description: Female athymic nude mice (Harlan Sprague Dawley, Madison, Wis.) were utilized for all experiments. Animals were housed in ventilated rack caging with food and water ad libitum. The mice were acclimated for at least 5 days prior to tumor implantation with tumor fragments.
The tumor model used in these studies was SK-OV-3 cell line, which was obtained from the ATCC (Manassas, Va.).
SK-OV-3 fragments were removed from donor animals and tissue was debrided of membrane and any hemorrhagic and necrotic areas and 3-4 mm^3 fragments, from in vivo passage 2, were implanted SC on the right flank of each animal, using a 13G trochar. Bacterial culture was taken on cells used to implant the study.
as §2, §3, §4

CaLu-6 tumors = details: G2 PM00104 0.9 mg/kg/day IV
Description: Female athymic nude mice (Harlan Sprague Dawley, Madison, Wis.) were utilized for all experiments. Animals were housed in ventilated rack caging with food and water ad libitum. The mice were acclimated for at least 5 days prior to tumor implantation.
The tumor model used in this study was CaLu-6 cell line which is a human lung cell line obtained from the ATCC (Manassas, Va.). […] Cells from in vitro passage 10 were those implanted SC into study mice.
Treatments were initiated on DPI 9.
Tumor size measurements were recorded 2-3 times/week from the treatment initiation until the termination of the study.
as §4

[1] = PM00104 0.90 IV, docetaxel 16 IP, oxaliplatin 8 IP mg/kg/day (G2, G3, G5, G7, G9), DPI 14, 21, 28
[2] = day 14, PM00104 0.90, sorafenib 60 mg/kg/day
[3] = day 18, PM00104 0.90, sorafenib 60 mg/kg/day
[4] = day 22, PM00104 0.90, sorafenib 60 mg/kg/day
[5] = day 25, PM00104 0.90, sorafenib 60 mg/kg/day
[6] = day 28, PM00104 0.90, sorafenib 60 mg/kg/day
[7] = day 32, PM00104 0.90, sorafenib 60 mg/kg/day
[8] = day 35, PM00104 0.90, sorafenib 60 mg/kg/day
[9] = day 39, PM00104 0.90, sorafenib 60 mg/kg/day
[10] = day 42, PM00104 0.90, sorafenib 60 mg/kg/day
[11] = PM00104 0.90 mg/kg/day IV and/or Bevacizumab 5 mg/kg/day IP

COc1c(C)cc2c(c1O)[C@@H]1[C@@H]3Cc4c(OC(C)=O)c(C)c5c(c4[C@H](CNC(=O)/C=C/c4cccc(C(F)(F)F)c4)N3[C@@H](O)[C@H](C2)N1C)OCO5 [PM00104]
% T/C on day 14 (Hs746T tumors; [1]): 99.9%
% T/C on day 19 (Hs746T tumors; [1]): 54.9%
% T/C on day 22 (Hs746T tumors; [1]): 40.8%
% T/C on day 26 (Hs746T tumors; [1]): 39.5%
% T/C on day 29 (Hs746T tumors; [1]): 30.4%
% T/C on day 32 (Hs746T tumors; [1]): 47.6%
% T/C on day 39 (Hs746T tumors; [1]): 80.3%
% Inhibition (Hs746T tumors; day 14, PM00104 0.9 and docetaxel 8 mg/kg/day): 0.1%
% Inhibition (Hs746T tumors; day 14, PM00104 0.9 and docetaxel 16 mg/kg/day): 0.1%
% Inhibition (Hs746T tumors; day 14, PM00104 0.9 and oxaliplatin 4 mg/kg/day): 0.1%
% Inhibition (Hs746T tumors; day 14, PM00104 0.9 and oxaliplatin 8 mg/kg/day): 0.1%
% Inhibition (Hs746T tumors; day 19, PM00104 0.9 and docetaxel 8 mg/kg/day): 45.1%
% Inhibition (Hs746T tumors; day 19, PM00104 0.9 and docetaxel 16 mg/kg/day): 45.1%
% Inhibition (Hs746T tumors; day 19, PM00104 0.9 and oxaliplatin 4 mg/kg/day): 45.1%
% Inhibition (Hs746T tumors; day 19, PM00104 0.9 and oxaliplatin 8 mg/kg/day): 45.1%
% Inhibition (Hs746T tumors; day 22, PM00104 0.9 and docetaxel 8 mg/kg/day): 59.2%
% Inhibition (Hs746T tumors; day 22, PM00104 0.9 and docetaxel 16 mg/kg/day): 59.2%
% Inhibition (Hs746T tumors; day 22, PM00104 0.9 and oxaliplatin 4 mg/kg/day): 59.2%
% Inhibition (Hs746T tumors; day 22, PM00104 0.9 and oxaliplatin 8 mg/kg/day): 59.2%
% Inhibition (Hs746T tumors; day 26, PM00104 0.9 and docetaxel 8 mg/kg/day): 60.5%
% Inhibition (Hs746T tumors; day 26, PM00104 0.9 and docetaxel 16 mg/kg/day): 60.5%
% Inhibition (Hs746T tumors; day 26, PM00104 0.9 and oxaliplatin 4 mg/kg/day): 60.5%
% Inhibition (Hs746T tumors; day 26, PM00104 0.9 and oxaliplatin 8 mg/kg/day): 60.5%
% Inhibition (Hs746T tumors; day 29, PM00104 0.9 and docetaxel 8 mg/kg/day): 69.6%
% Inhibition (Hs746T tumors; day 29, PM00104 0.9 and docetaxel 16 mg/kg/day): 69.6%
% Inhibition (Hs746T tumors; day 29, PM00104 0.9 and oxaliplatin 4 mg/kg/day): 69.6%
% Inhibition (Hs746T tumors; day 29, PM00104 0.9 and oxaliplatin 8 mg/kg/day): 69.6%
% Inhibition (Hs746T tumors; day 32, PM00104 0.9 and docetaxel 8 mg/kg/day): 52.4%
% Inhibition (Hs746T tumors; day 32, PM00104 0.9 and docetaxel 16 mg/kg/day): 52.4%
% Inhibition (Hs746T tumors; day 32, PM00104 0.9 and oxaliplatin 4 mg/kg/day): 52.4%
% Inhibition (Hs746T tumors; day 32, PM00104 0.9 and oxaliplatin 8 mg/kg/day): 52.4%
% Inhibition (Hs746T tumors; day 39, PM00104 0.9 and docetaxel 8 mg/kg/day): 19.7%
% Inhibition (Hs746T tumors; day 39, PM00104 0.9 and docetaxel 16 mg/kg/day): 19.7%
% Inhibition (Hs746T tumors; day 39, PM00104 0.9 and oxaliplatin 4 mg/kg/day): 19.7%
% Inhibition (Hs746T tumors; day 39, PM00104 0.9 and oxaliplatin 8 mg/kg/day): 19.7%
% T/C (PLC/PRF/5 tumors; day 14, PM00104 0.45, sorafenib 60 mg/kg/day): 106.5%
% Inhibition (PLC/PRF/5 tumors; [2]): −0.8%
% T/C (PLC/PRF/5 tumors; [2]): 100.8%
% T/C (PLC/PRF/5 tumors; day 18, PM00104 0.45, sorafenib 60 mg/kg/day): 71.1%
% Inhibition (PLC/PRF/5 tumors; [3]): 21.2%
% T/C (PLC/PRF/5 tumors; [3]): 78.8%
% T/C (PLC/PRF/5 tumors; day 22, PM00104 0.45, sorafenib 60 mg/kg/day): 73.5%
% Inhibition (PLC/PRF/5 tumors; [4]): 33.3%
% T/C (PLC/PRF/5 tumors; [4]): 66.7%
% T/C (PLC/PRF/5 tumors; day 25, PM00104 0.45, sorafenib 60 mg/kg/day): 80.4%
% Inhibition (PLC/PRF/5 tumors; [5]): 29.0%
% T/C (PLC/PRF/5 tumors; [5]): 71.0%
% T/C (PLC/PRF/5 tumors; day 28, PM00104 0.45, sorafenib 60 mg/kg/day): 67.3%
% Inhibition (PLC/PRF/5 tumors; [6]): 47.1%
% T/C (PLC/PRF/5 tumors; [6]): 52.9%
% T/C (PLC/PRF/5 tumors; day 32, PM00104 0.45, sorafenib 60 mg/kg/day): 79.7%
% Inhibition (PLC/PRF/5 tumors; [7]): 54.4%
% T/C (PLC/PRF/5 tumors; [7]): 45.6%
% T/C (PLC/PRF/5 tumors; day 35, PM00104 0.45, sorafenib 60 mg/kg/day): 71.7%
% Inhibition (PLC/PRF/5 tumors; [8]): 45.1%
% T/C (PLC/PRF/5 tumors; [8]): 54.9%
% T/C (PLC/PRF/5 tumors; day 39, PM00104 0.45, sorafenib 60 mg/kg/day): 89.2%
% Inhibition (PLC/PRF/5 tumors; [9]): 22.9%
% T/C (PLC/PRF/5 tumors; [9]): 77.1%
% T/C (PLC/PRF/5 tumors; day 42, PM00104 0.45, sorafenib 60 mg/kg/day): 85.7%
% Inhibition (PLC/PRF/5 tumors; [10]): 29.9%
% T/C (PLC/PRF/5 tumors; [10]): 70.1%
% T/C on day 14 (SK-OV-3 tumors; [11]): 100.9%
% T/C on day 17 (SK-OV-3 tumors; [11]): 87.6%
% T/C on day 21 (SK-OV-3 tumors; [11]): 79.4%
% T/C on day 24 (SK-OV-3 tumors; [11]): 78.8%
% T/C on day 29 (SK-OV-3 tumors; [11]): 73.5%
% T/C on day 32 (SK-OV-3 tumors; [11]): 73.1%
% T/C on day 36 (SK-OV-3 tumors; [11]): 72.7%
% T/C on day 43 (SK-OV-3 tumors; [11]): 81.5%
% T/C on day 50 (SK-OV-3 tumors; [11]): 93.8%
% T/C on day 57 (SK-OV-3 tumors; [11]): 100.4%
% Inhibition (SK-OV-3 tumors; bevacizumab 5 mg/kg/day): 27.3%
% Inhibition (SK-OV-3 tumors; bevacizumab […]): 27.3%
% T/C on day 9 (CaLu-6 tumors): 104.1%
% T/C on day 13 (CaLu-6 tumors): 106.0%
% T/C on day 16 (CaLu-6 tumors): 111.4%
% T/C on day 20 (CaLu-6 tumors): 115.4%
% T/C on day 27 (CaLu-6 tumors): 93.9%
% T/C on day 30 (CaLu-6 tumors): 80.3%
% T/C on day 34 (CaLu-6 tumors): 81.5%
% T/C on day 42 (CaLu-6 tumors): 77.2%
% Inhibition (CaLu-6 tumors; day 9): −4.1%
% Inhibition (CaLu-6 tumors; day 13): −6.0%
% Inhibition (CaLu-6 tumors; day 16): −11.4%
% Inhibition (CaLu-6 tumors; day 20): −15.4%
% Inhibition (CaLu-6 tumors; day 23): −16.8%
% Inhibition (CaLu-6 tumors; day 27): 6.1%
% Inhibition (CaLu-6 tumors; day 30): 19.7%
% Inhibition (CaLu-6 tumors; day 34): 18.5%
% Inhibition (CaLu-6 tumors; day 42): 22.8%
